Test results taken from patent US10864201B2, “Heteroaromatic compounds as Vanin inhibitors” (Boehringer Ingelheim International GmbH, priority 2018, dated 2020).

Legend:
[1] = target: FLAG-tagged Vanin-1 (AA 22-493, T26I) (Homo sapiens (Human), UniProt O95497, T26I); assay: Vanin-1 enzymatic assay; type: biochemical; details: formation of pantothenic acid from D-pantethine (3 μM), RapidFire MS; geometric mean in case of multiple measurements; read-out: VNN 1 IC50
Experimental: The test compounds are dissolved in 100% DMSO at a concentration of 10 mM and in a first step diluted in DMSO to a concentration of 5 mM, followed by serial dilution steps in 100% DMSO. Dilution factor and number of dilution steps may vary according to needs. Typically 8 different concentrations by 1:5 dilutions are prepared, a further intermediate dilutions of the substances is carried out with assay buffer resulting in 1% final DMSO concentration in the assay.
0.1 nM of FLAG-tagged Vanin-1 (AA 22-493, T26I, produced internally) and test compounds are incubated at room temperature for 20 minutes in assay buffer (1 mM DTT, 0.0025% Brij-35, 50 mM HEPES, pH7.5). D-Pantethine (Sigma, Cat #P2125-5G) in assay buffer is added (final concentration 3 μM) and incubated for additional 30 minutes at room temperature. Total assay volume typically is 40 μl but might be adjusted according to needs. Reaction is stopped by adding equal volume of stop solution as the reaction mixture to reach 100 nM HD-pantothenic acid (as an internal standard) and 1% TFA. Assay plates are centrifuged for 2 minutes and the formation of pantothenic acid is detected by RapidFire Mass Spectrometry (mobile phase A: 0.1% formic acid and 0.01% trifluoroacetic acid in water; mobile phase B: 47.5% acetonitrile, 47.5% methanol, 0.1% formic acid and 0.01% trifluoroacetic acid in water) using a C18, 12 μL cartridge (Agilent Cat #G9205A).
The values given in Table I result from measurements of one or more samples. In case of multiple measurements the geometric mean values are given.

Pantetheinase (vanin) = assay: Human Whole Blood assay; type: cell-based; details: formation of pantothenic acid after pantethine supplementation, RapidFire MS, read-out: HWB IC50
Experimental: Human Whole Blood assay: Pantetheinase (vanin) converts panteheine into pantothenic acid and cysteamine. Accordingly, in the described protocol vanin activity is quantified by formation of pantothenic acid after pantetheine supplementation via pantethine. The assay is applicable to identify vanin inhibitors. Compound stocks were dissolved in DMSO at 10 mM. Further dilutions were performed in RPMI 1640 medium (Gibco, #A-10491-01) and final concentrations in the assay were 0.032 nM-500 nM.
Human blood was drawn into a blood bag (1% heparin, 50 I.E./mL). Blood was aliquoted into cavities of 96-deep-well plates at 290 μL and mixed with 10 μL compound solution or vehicle (30 sec at 1400 rpm on a shaker). Equilibration followed at room temperature, 250 rpm and for 30 min. The assay was started by adding 10 μL of substrate solution (20 μM pantethine in 1 mM DTT, 0.0025% Brij-35, 50 mM HEPES, pH7.5) to each well, except for some blank wells which received […] substrate buffer (1 mM DTT, 0.0025% Brij-35, 50 mM HEPES, pH7.5) only. Samples were thoroughly shaken (30 sec, 1400 rpm) and reaction was allowed to take place at room temperature, 250 rpm and for 5 min. The reaction was stopped by addition of a vanin tool inhibitor in excess (BI-1 total conc. 10 μM). Centrifugation of the plate followed at 4° C., 665 G for 10 min. Then the blood plasma samples (100 μL) were transferred into another 96-deep-well plate and proteins were precipitated (5 min on ice) by adding 100 μL of ice cold precipitation solution (1 μM labelled pantothenic acid (di-β-alanine-13C6,15N2 calcium salt, Sigma, #705837) in acetonitrile). Afterwards the plate was centrifuged (4° C., 3220 G, 10 min) and supernatants (50 μL) were collected into another 96-deep-well plate and mixed (10 sec, 1400 rpm) with 150 μL ice cold formic acid (0.1%, Carl Roth GmbH+Co.KG, #CP03.1). The formation of pantothenic acid is detected by RapidFire Mass Spectrometry. A TripleQuad 6500+ (ABSciex, Germany) was equipped with an LC-1290 system, a RapidFire autosampler (Agilent, Germany) and a C18 cartridge Type C 12 μL (Agilent Cat #G9526-80000). Mobile phase A was consisting of 0.09% formic acid and 0.01% trifluoroacetic acid in water and mobile phase B of 0.09% formic acid and 0.01% trifluoroacetic acid in acetonitrile/methanol/water=47.5/47.5/5.

Sequence of FLAG-tagged Vanin-1 (AA 22-493, T26I) (O95497 22-493 T26I): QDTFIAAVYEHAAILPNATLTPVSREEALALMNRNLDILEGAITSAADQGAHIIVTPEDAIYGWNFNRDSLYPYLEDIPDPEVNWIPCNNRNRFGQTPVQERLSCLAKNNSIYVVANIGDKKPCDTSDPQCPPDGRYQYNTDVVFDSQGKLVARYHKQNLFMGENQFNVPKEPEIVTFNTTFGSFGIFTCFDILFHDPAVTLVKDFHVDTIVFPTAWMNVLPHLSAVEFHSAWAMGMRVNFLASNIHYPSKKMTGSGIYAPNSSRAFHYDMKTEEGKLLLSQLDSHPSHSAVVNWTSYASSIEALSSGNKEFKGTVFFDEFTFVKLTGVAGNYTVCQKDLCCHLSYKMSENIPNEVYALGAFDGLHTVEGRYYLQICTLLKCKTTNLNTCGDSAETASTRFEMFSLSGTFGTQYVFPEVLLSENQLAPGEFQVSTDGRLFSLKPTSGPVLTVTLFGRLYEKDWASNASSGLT

Structure (SMILES) | IC50 [1] [nM] | IC50 (Pantetheinase (vanin)) [nM]
CC(=O)N(C)[C@H]1CCN(C(=O)c2cnc3c(c2)C[C@](C)(c2ccc(F)cc2)N3)C1 [Example 6, N-[(3S)-1-[(2R)-2-(4-Fluorophenyl)-2-methyl-1H,2H,3H-pyrrolo[2,3-b]lpyridine-5-carbonyl]-pyrrolidin-3-yl]-N-methylacetamide] | 0.2 | 1.9
C[C@]1(c2ccc(F)cc2)Cc2cc(C(=O)N3CCC4(CCOCC4)C3)cnc2N1 [Example 5.1, 2-[(2R)-2-(4-Fluorophenyl)-2-methyl-1H,2H,3H-pyrrolo[2,3-b]pyridine-5-carbonyl]-8-oxa-2-azaspiro[4.5]decane] | 0.4 | 3.6
CN(C(=O)C1(C)CCC1)[C@H]1CCN(C(=O)c2cnc3c(c2)CCC(C)(C)N3)C1 [Example 11.4] | 0.9 | 11.4
CN(C(=O)C1CCC1)[C@H]1CCN(C(=O)c2cnc3c(c2)CC(C)(C)N3)C1 [Example 2.1, N-[(3S)-1-{2,2-Dimethyl-1H,2H,3H-pyrrolo[2,3-b]pyridine-5-carbonyl}pyrrolidin-3-yl]-N-methylcyclobutanecarboxamide] | 0.9 | 2.5
CN(C(=O)C1CC(F)(F)C1)[C@H]1CCN(C(=O)c2cnc3c(c2)CC(C)(C)N3)C1 [Example 2.4] | 0.6 | 2.8
CC1(C)Cc2cc(C(=O)N3CC[C@H](N4CCCC4=O)C3)cnc2N1 [Example 1.2] | 1.5 | 11.5
C[C@]1(c2ccc(F)cc2)Cc2cc(C(=O)N3CC[C@H](N4CCOC4=O)C3)cnc2N1 [Example 5.2] | 0.1 | 1.5
CCC1(C)CCc2cc(C(=O)N3CC[C@H](N(C)C(C)=O)C3)cnc2N1 (some centres unmarked) [Example 11.12] | 0.5 | 5.7
CN(C(=O)C1CC(F)(F)C1)[C@H]1CCN(C(=O)c2cnc3c(c2)CCC(C)(C)N3)C1 [Example 11.11] | 0.5 | 6.9
CN(c1ncccn1)[C@H]1CCN(C(=O)c2cnc3c(c2)CCC(C)(C)N3)C1 [Example 11.3] | 0.2 | 2.9
C[C@]1(c2ccc(Cl)cc2)Cc2cc(C(=O)N3CC[C@H](N4CCOC4=O)C3)cnc2N1 [Example 8.2] | 0.1 | 2.6
CN(c1ncccn1)[C@H]1CCN(C(=O)c2cnc3c(c2)CC(C)(C)N3)C1 [Example 3.1, N-[(3S)-1-{2,2-Dimethyl-1H,2H,3H-pyrrolo[2,3-b]pyridine-5-carbonyl}pyrrolidin-3-yl]-N-methylpyrimidin-2-amine] | 2.3 | 38
CC(=O)N(C)[C@H]1CCN(C(=O)c2cnc3c(c2)C[C@](C)(c2ccc(Cl)cc2)N3)C1 [Example 9.1, N-[(3S)-1-[(2R)-2-(4-Chlorophenyl)-2-methyl-1H,2H,3H-pyrrolo[2,3-b]pyridine-5-carbonyl]pyrrolidin-3-yl]-N-methylacetamide] | 0.1 | 3
C[C@]1(c2ccc(Cl)cc2)Cc2cc(C(=O)N3CC[C@H](N4CCCC4=O)C3)cnc2N1 [Example 8.3] | 0.1 | 3.8
CC(=O)N(C)[C@H]1CCN(C(=O)c2cnc3c(c2)CC(C)(c2ccc(Cl)cc2)N3)C1 (mixture of isomers) [Example 8.1, N-[(3S)-1-[2-(4-Chlorophenyl)-2-methyl-1H,2H,3H-pyrrolo[2,3-b]pyridine-5-carbonyl]pyrrolidin-3-yl]-N-methylacetamide] | 0.2 | 4.3
CC(=O)N(C)[C@H]1CCN(C(=O)c2cnc3c(c2)C[C@](C)(c2cccc(Cl)c2)N3)C1 [Example 7.2] | 0.1 | 2
